The record followed here is publication PMC6271323, “Preparation of Rotenone Derivatives and in Vitro Analysis of Their Antimalarial, Antileishmanial and Selective Cytotoxic Activities” (Molecules, 2014).

Data set [1] has as its system intracellular amastigotes of Leishmania panamensis. Kind of data set: Leishmanicidal activity on intracellular amastigotes, flow cytometry (GFP). The class given is cell-based. The following applies: for Index of Selectivity huMDM: IS = LC50 in huMDM/EC50 for L. panamensis; for EC50: Leishmania panamensis, read-out: Biological activity CE50 Leishmanicidal. How it is done: The leishmanicidal activity was tested on intracellular amastigotes of Leishmania panamensis by flow cytometry following the methodology previously described. Previously, huMDM were infected with promastigotes of L. panamensis transfected with the green fluorescent protein gene (MHOM/CO/87/UA140pIR-GFP) in a proportion of 35:1 (parasites:cells). Plates were incubated at 34 °C, 5% CO2, and after 3 h, cells were washed twice with phosphate buffer (PBS) and incubated again. After 24 h, the infected cells were exposed for 72 h to each concentration of the compounds. Cells were removed using trypsin/EDTA solution and washed twice with PBS by centrifuging 10 min at 1,100 rpm, 4 °C. Then, cells were analyzed in a flow cytometer (Cytomics FC 500MPL, Brea, CA, USA) by reading at 488-nm excitation, 525-nm emissions over an argon laser and counting 10,000 events. The percentage of infected cells was determined by dot plot analysis, while the parasitic load was calculated by the mean fluorescence intensity using histogram analysis. In parallel, cells incubated in medium alone were used as the controls of infection (negative control), and cells exposed to amphotericin B were used as controls of leishmanicidal activity (positive control). Each concentration was assessed in triplicate in at least two independent experiments.
Antileishmanial activity was determined according to the reduction of infected cells and their parasite load obtained for each experimental condition according to the fluorescence median intensity (FMI) emitted by the cytometer and using Equation 3, where the % of parasitemia in unexposed cells corresponds to 100% parasitemia. […] Results are expressed as the median effective concentration (EC50) calculated by probit analysis using the % of inhibition of infection: % parasitemia = (FMI Exposed cells)/(FMI unexposed cells) × 100(3)
(§1) The index of selectivity was calculated with the equation: IS = LC50/EC50.

Data set [2] can be described thus: in vitro. The text has this: U937 cells (CRL-1593^TM) were isolated from human histiocytic lymphoma; Vero cells (CCL-81^TM) were derived from the kidney of the African green monkey, Cercopithecus aethiops; HepG2 (HB-8065^TM) cells were derived from human liver tissue, and CAD-R1 cells, a subclone, were derived from mouse neuronal cells. All cell lines were from American Type Culture Collection (Manassas, VA, USA), except CAD-R1 cells that were kindly donated by D. Chikaraishi and J. Wang (Department of Neurobiology, Duke University Medical Center, Durham, NC, USA). All cell lines were cultured in standard conditions at 37 °C, 5% CO2. U-937 cells were cultivated in RPMI 1640 medium supplemented with 10% fetal bovine serum (FBS) and antibiotics (penicillin 100 U/mL and streptomycin 0.1 mg/mL). Vero, HepG2 and CAD-R1 were cultivated in DMEM medium supplemented with 5% FBS and antibiotics.
(§2) Cytotoxic activity of rotenone and it derivatives on U-937, Vero, HepG2, […] and huMDM cells was evaluated in vitro using the MTT (3-(4,5-dimethylthiazol-2-yl)-2,5-diphenyltetrazolium bromide assay) as described previously. Cells were adjusted to 1 × 10^5 U-937 cells/mL, 2.5 × 10^5 Vero, HepG2 or CAD-R1 cells/mL and 5 × 10^5 huMDM cells/mL in RPMI 1640 supplemented with 10% SBF and the corresponding concentration of each compound. Six serial-based four-dilution concentrations from 200 to 0.19 μg/mL were tested. The amount of formazan produced by the viable cells was registered as optical densities (OD) obtained in an ELISA reader (Bio-Rad) at 570 nm. […] Additionally, hemolytic activity on huRBCs was assessed by the osmotic lysis method. In brief, O positive (O+) huRBCs were adjusted at 3% hematocrit saline solution and incubated in the presence of each compound (six serial four-fold dilutions from 200 to 0.19 µg/mL) at 37 °C. After 2 h, hemoglobin concentration in the supernatant was measured according to the OD obtained in an ELISA reader plate (Bio-Rad) at 570 nm. Cells exposed to saline solution with Triton X-100 were used as positive (lyses) controls, while unexposed cells were used as negative (viability) controls. Each compound and each concentration were assessed in triplicate in at least two separate experiments.
(§3) The percentage of viability (%V) was calculated using Equation 1, where the optical density (OD) of unexposed cells (negative control) corresponds to 100% of viability. In turn, mortality percentage corresponds to 100%–% viability: % Viability = (OD Exposed cells)/(OD Control cells) × 100(1)

Data set [3] relates to Plasmodium falciparum (chloroquine sensitive 3D7 strain). Kind of data set: microbe, parasite or virus in culture. In kind it is cell-based. The following applies: for EC50: read-out: Biological activity CE50 Antiplasmodial; for Index of Selectivity huRBC: IS = LC50 in huRBC/EC50 in P. falciparum. How it is done:
The effect of compounds on the growth of the parasites was assessed by quantification of the parasite DNA stained with ethidium bromide (EtBr). Briefly, unsynchronized cultures of P. falciparum were adjusted to a 1.5%–2% parasitemia and 5% hematocrit in RPMI medium supplemented with 10% human serum. Then, 500 µL of parasites and 500 µL of each concentration of compound were placed in each well of 24-well plates. Plates were incubated for 72 h at 37 °C in a N2 (90%), CO2 (5%) and O2 (5%) atmosphere. […] After 72 h of exposure, DNA from parasites was extracted and purified using a lysis solution containing proteinase K. Each compound and each concentration were assessed in triplicate in at least two separate experiments.
Results are expressed as the median effective concentration (EC50) calculated by probit analysis using the % of inhibition: % parasite growth = (FAU Exposed parasites)/(FAU unexposed parasites) × 100(2)
as §1

Data set [4] in a line: in vitro. The following applies: human. How it is done:
Primary cultures of human monocyte-derived macrophages (huMDMs) and human red blood cells (huRBCs) obtained from healthy donors after signing the informed consent were also used. The huMDM were obtained from peripheral mononuclear cells isolated by Ficoll-Hypaque 1077 gradient centrifugation. huMDMs were suspended at 3 × 10^5 cells/mL in RPMI 1640 medium supplemented with 10% autologous serum. One mL of suspension was dispensed into each well of 24-well chamber slides and incubated at 37 °C, 5% of CO2 for 72 h, according to a previously described methodology. On the other hand, huRBCs were obtained from sodium citrate anticoagulated whole blood. After centrifugation at 1,500 rpm for 10 min, the RBCs were recovered and suspended in RPMI 1640 medium at 50% hematocrit and stored at 4 °C until use.
as §2, §3

Where [5] appears, read: L. panamensis intracellular amastigotes in huMDM, 72 h exposure, ± SD, n = 6 replicates.
Setting [6] is: African green monkey (Cercopithecus aethiops).
The mark [7] stands for this setting: Plasmodium falciparum, 3D7, 72 h, total forms of P. falciparum 3D7, unsynchronized culture, 72 h, ± SD, n = 6 replicates.
Where [8] appears, read: total forms of P. falciparum 3D7, unsynchronized culture, 72 h, ± SD, n = 6 replicates.

Where two headings read alike, the source gives them in different places. A value given as a limit tells only on which side of the number the result lay.

In the case of `C[C@@H]1[C@H](O)[C@@H](C)/C=C/C=C/C=C/C=C/C=C/C=C/C=C/[C@H](O[C@@H]2O[C@H](C)[C@@H](O)[C@H](N)[C@@H]2O)C[C@@H]2O[C@](O)(C[C@@H](O)C[C@@H](O)[C@H](O)CC[C@@H](O)C[C@@H](O)CC(=O)O[C@H]1C)C[C@H](O)[C@H]2C(=O)O` [Amphotericin B, reference compound], in data set [1], the “Index of Selectivity huMDM” value stood at 143.0. Also, in data set [1] (setting [5]), the EC50 was 0.8 ± 0.2 µM. Besides, the figures for the CC50 in data set [2] (setting [6]) and in data set [2] (mouse) were 15.6 ± 0.4 µM and 54.5 ± 0.3 µM, respectively.

Regarding `CCN(CC)CCCC(C)Nc1ccnc2cc(Cl)ccc12` (stereo not drawn) [Chloroquine, reference compound], the EC50 in data set [3] (setting [7]) is 0.06 ± 0.03 µM.

`C=C(C)[C@H]1Cc2c(ccc3c2O[C@@H]2COc4cc(OC)c(OC)cc4[C@@H]2C3=O)O1` [Compound 1, rotenone]: the “Index of Selectivity huMDM” value in data set [1] is on record as 3.1. Further, the EC50 in data set [1] (72 h) came out at 127 ± 17.3 µM; in data set [3] (Plasmodium falciparum, 3D7, 72 h), 19 ± 8.6 µM. The “activity against intracellular amastigotes (in words)” value in data set [1] (antileishmanial activity, L. panamensis) was “inactive”. Besides, the CC50 in data set [2] (setting [6]) is above 508 µM; in data set [2] (mouse), 10.2 µM. The CC50 at 2 h in data set [4] is above 508 µM. Also, the “Index of Selectivity huRBC” value in data set [3] (listed as 1 (Rotenone)) is recorded as above 26.1.

In the case of `COc1cc2c(cc1OC)[C@@H]1C(=O)c3ccc4c(c3O[C@@H]1CO2)C[C@H](C1(C)CO1)O4` (stereo partly drawn) [Compound 2, 6aS,12aS-8,9-Dimethoxy-2-(2-methyloxiran-2-yl)-1,2,12,12a-tetrahydrochromeno[3,4-b]furo[2,3-h]-chromen-6(6aH)-one], the “Index of Selectivity huMDM” value in data set [1] is below 3.6. Moreover, the EC50 was above 126 µM in data set [1] (setting [5]), below 50 µM in data set [3] (setting [7]) and 41.7 ± 12.6 µM in data set [3] (setting [8]). Further, the CC50 in data set [2] (setting [6]) was 81.3 ± 16.9 µM; in data set [2] (mouse), 29 ± 3 µM; in data set [4], above 505 µM. Also, the “Index of Selectivity huRBC” value in data set [3] is on record as above 12.1.

Turning to `C=C(C)[C@H]1Cc2c(ccc3c2O[C@@H]2COc4cc(OC)c(OC)cc4[C@@H]2C3O)O1` (stereo partly drawn) [Compound 3, 2R,6aR,12aS-8,9-Dimethoxy-2-(prop-1-en-2-yl)-1,2,6,6a,12,12a-hexahydrochromeno[3,4-b]furo[2,3-h]chromen-6-ol], the “Index of Selectivity huMDM” value in data set [1] is recorded as below 3.9. Besides, the EC50 in data set [1] (setting [5]) is above 130 µM; in data set [3] (setting [7]), below 50 µM; in data set [3] (setting [8]) it was 53.9 ± 2.4 µM. Besides, the figures for the CC50 in data set [2] (setting [6]), in data set [2] (mouse) and in data set [4] were 284 ± 23.6 µM, 17 ± 3.4 µM and above 523 µM, respectively. Besides, in data set [3], the “Index of Selectivity huRBC” value is above 9.6.

On to `COc1cc2c(cc1OC)C1Cc3ccc4c(c3O[C@@H]1CO2)C[C@H](C(C)C)O4` (stereo partly drawn) [Compound 7, 2R,6aS,12aS-2-Isopropyl-8,9-dimethoxy-1,2,6,6a,12,12a-hexahydrochromeno-[3,4-b]furo[2,3-h]-chromene], for which the “Index of Selectivity huMDM” value in data set [1] is below 4.0. The EC50 in data set [1] (setting [5]) is above 119 µM; in data set [3] (setting [7]) it was below 50 µM; in data set [3] (setting [8]) it was 47.4 ± 0.2 µM. Moreover, the CC50 is above 476 µM in data set [2] (setting [6]), 1.67 ± 0.9 µM in data set [2] (mouse) and above 476 µM in data set [4]. Moreover, the “Index of Selectivity huRBC” value in data set [3] is reported as 8.7.

Regarding `COc1cccc2c1C(=O)c1c(O)c3c(c(O)c1C2=O)C[C@@](O)(C(=O)CO)C[C@@H]3O[C@H]1C[C@H](N)[C@H](O)[C@H](C)O1` [Doxorubicin, reference compound], the CC50 in data set [2] (setting [6]) was 9.36 ± 2.2 µM; in data set [2] (mouse), 2.6 ± 0.7 µM.
